Data as given in US20040132764A1, “Antibiotics for the treatment of infections in acidic environments” (Morphochem Aktiengesellschaft fuer Kombinatorische Chemie, priority 2002, published 2004).
Values after ≈ are worked out from the molar mass of the structure shown. Like-named read-outs stand apart in the source and are kept apart here.

System: bacterial strains from the Morphochem collection
Assay: MIC determination by microdilution method (NCCLS guidelines, IsoSensitest broth) with pH of the test medium varied
Type: cell-based
Details: strain not named
Procedure: MICs (minimal inhibitory concentrations) were determined by a microdilution method following NCCLS guidelines, except that IsoSensitest broth (Oxoid; Basingstroke, UK) was used (National Committee for Clinical Laboratory Standards “Methods for Dilution Antimicrobial Susceptibility Tests for Bacteria that Grow Aerobically”, 4th ed.; Approved standard: NCCLS Document M7-A4; National Committee for Clinical Laboratory Satandars: Villanova, Pa., USA, 1997). The medium was supplemented with 3% lysed horse blood for fastidious organisms. Serial dilutions in 96-well plates were prepared with the help of a Biomek 2000 robot. The pH of the test medium was varied from 7.8 to 6.4. The bacterial strains used were from the Morphochem collection. Clinical isolates were originally obtained from the Kantonspital Basel, Switzerland, and from other European and US hospitals.
pH-dependent antibacterial activity (MIC (μg/mL) at pH): […]

[1] = pH 6.4 of test medium, read-out: pH-dependent antibacterial activity (MIC at pH) 6.4
[2] = pH 6.8 of test medium, read-out: pH-dependent antibacterial activity (MIC at pH) 6.8
[3] = pH 7.4 of test medium, read-out: pH-dependent antibacterial activity (MIC at pH) 7.4
[4] = pH 7.8 of test medium, read-out: pH-dependent antibacterial activity (MIC at pH) 7.8

In the case of `CC(=O)NC[C@H]1CN(c2ccc(N3CCN(c4cc5c(cc4F)c(=O)c(C(=O)O)cn5C4CC4)CC3)c(F)c2)C(=O)O1` [Example 1, 7-(4-{4-[5-(acetylamino-methyl)-2-oxo-oxazolidin-3-yl]-2-fluoro-phenyl}-piperazin-1-yl)-1-cyclopropyl-6-fluoro-4-oxo-1,4-dihydro-quinoline-3-carboxylic Acid], the MIC [1] is reported as 0.03 µg/mL (≈ 0.0516 µM), the MIC [2] is reported as 0.125 µg/mL (≈ 0.215 µM) and the MIC [3] is reported as 0.25 µg/mL (≈ 0.43 µM). It also gave an MIC [4] of 0.5 µg/mL (≈ 0.86 µM).
In the case of `CC(=O)NC[C@H]1CN(c2ccc(N3CCOCC3)c(F)c2)C(=O)O1` [linezolid, reference compound], the MIC [1] is reported as 0.5 µg/mL (≈ 1.48 µM), the MIC [2] is reported as 0.5 µg/mL (≈ 1.48 µM) and the MIC [3] is reported as 1 µg/mL (≈ 2.96 µM). It also gave an MIC [4] of 1 µg/mL (≈ 2.96 µM).
In the case of `CC(=O)NC[C@H]1CN(c2ccc(N3CCN(c4nc5c(cc4F)c(=O)c(C(=O)O)cn5C4CC4)CC3)c(F)c2)C(=O)O1` [Example 10], the MIC [1] is reported as 0.125 µg/mL (≈ 0.215 µM), the MIC [2] is reported as 0.25 µg/mL (≈ 0.429 µM) and the MIC [3] is reported as 0.5 µg/mL (≈ 0.858 µM). For the same compound, the MIC [4] was 1 µg/mL (≈ 1.72 µM).
In the case of `CC(=O)NC[C@H]1CN(c2ccc(N[C@@H]3CCN(c4cc5c(cc4F)c(=O)c(C(=O)O)cn5C4CC4)C3)c(F)c2)C(=O)O1` [Example 4], the MIC [1] is reported as 0.03 µg/mL (≈ 0.0516 µM), the MIC [2] is reported as 0.06 µg/mL (≈ 0.103 µM) and the MIC [3] is reported as 0.25 µg/mL (≈ 0.43 µM). For the same compound, the MIC [4] was 0.5 µg/mL (≈ 0.86 µM).
